The nature of data set [1]: Solubility study in water by visual assessment. The format is physicochemical. Particulars: for solubility: thermodynamic from solid, water, ambient. Here is the method: The L-dopa phosphate prodrugs and the carbidopa phosphate prodrugs were evaluated in a solubility study. The solubility values of the phosphate prodrugs in water under ambient conditions were determined by visual assessment. Table 13-A reports the results of the study, including the measured values for L-dopa and carbidopa.

Data set [2] is described as follows: In vitro bioconversion study, blood (human). The following applies: for half-life at 2.5 ug/mL / T1/2: prodrug 2.5 ug/mL, 37° C. The format is in vitro ADME.
Protocol: (§1) In brief, the L-dopa and carbidopa phosphate prodrugs (2.5 ug/mL) were incubated with tissue homogenate or fractions from rats, mini-pigs, or human, including blood, skin homogenate (3 mg/mL), liver microsomes (1 mg/mL), liver S9 fraction (1 mg/mL), kidney S9 fraction (1 mg/mL), and intestine S9 fractions (1 mg/mL). The reaction mixtures were incubated at 37° C. for 5 to 6 time points within 1 to 2 hours. At the end of each time point, the reaction mixtures were quenched by 2 to 3 volumes of 5% trichloroacetic acid in water. After quenching, the mixtures were centrifuged at 3000 rpm for 20 minutes, and the supernatants were analyzed by LC-MS for quantitation of the prodrug, L-dopa or carbidopa. The in vitro bioconversion was assessed by monitoring both time-dependent depletion of the prodrug and the formation of the corresponding L-dopa or carbidopa.
Data set [3] can be described thus: In vitro bioconversion study, skin homogenates (human). The format is in vitro ADME. The following applies: for L-Dopa or Carbidopa Formation: human skin homogenate.
Protocol: (§2) The in vitro bioconversion of the L-dopa phosphate prodrugs to L-dopa and the carbidopa phosphate prodrugs to carbidopa was evaluated in several studies. In brief, the L-dopa and carbidopa phosphate prodrugs (2.5 ug/mL) were incubated with tissue homogenate or fractions from rats, mini-pigs, or human, including blood, skin homogenate (3 mg/mL), liver microsomes (1 mg/mL), liver S9 fraction (1 mg/mL), kidney S9 fraction (1 mg/mL), and intestine S9 fractions (1 mg/mL). The reaction mixtures were incubated at 37° C. for 5 to 6 time points within 1 to 2 hours. At the end of each time point, the reaction mixtures were quenched by 2 to 3 volumes of 5% trichloroacetic acid in water. After quenching, the mixtures were centrifuged at 3000 rpm for 20 minutes, and the supernatants were analyzed by LC-MS for quantitation of the prodrug, L-dopa or carbidopa. The in vitro bioconversion was assessed by monitoring both time-dependent depletion of the prodrug and the formation of the corresponding L-dopa or carbidopa.
Data set [4] can be described thus: In vitro bioconversion study, blood (rat). It is filed as in vitro ADME. Particulars: for half-life at 2.5 ug/mL: prodrug 2.5 ug/mL, 37° C.
Protocol: as §1
Data set [5] can be described thus: In vitro bioconversion study, skin homogenates (mini-pig). It is filed as in vitro ADME. Particulars: for L-Dopa or Carbidopa Formation: mini-pig skin homogenate; for half-life at 2.5 ug/mL: minipig.
Protocol: as §1
Data set [6] in a line: In vitro bioconversion study, blood (mini-pig). Particulars: for half-life at 2.5 ug/mL: minipig; for half-life at 2.5 ug/mL / T1/2: prodrug 2.5 ug/mL, 37° C. It is filed as in vitro ADME.
Protocol: as §1
Data set [7] in a line: In vitro bioconversion study, skin homogenates (rat). The format is in vitro ADME. Particulars: for L-Dopa or Carbidopa Formation: rat skin homogenate.
Protocol: as §1
Data set [8] in a line: 1-day stability study of individual prodrugs in aqueous solution. Particulars: aqueous solution 80 μg/mL, ambient storage. It is filed as physicochemical. Here is the method:
The L-dopa phosphate prodrugs and the carbidopa phosphate prodrugs were evaluated in a stability study.

A short description of data set [9]: 7-day stability study, 4′-monophosphate combination solution. It is filed as physicochemical. Particulars: combined solution L-dopa 4′-monophosphate 200 mg/mL + carbidopa 4′-monophosphate 50 mg/mL, pH 7.4, room temperature. Here is the method: In addition, a solution combining the L-dopa 4′-monophosphate at 200 mg/mL and carbidopa 4′-monophosphate at 50 mg/mL was monitored over 7 days at room temperature. These samples were prepared with and without purging with nitrogen to remove oxygen.

A short description of data set [10]: In vitro bioconversion study, human liver microsomes. The format is in vitro ADME. The following applies: human liver microsomes 1 mg/mL. In general terms: Liver microsomes are a subcellular fraction often used to study metabolism.
Protocol: as §2
Data set [11] is classed as in vivo, rats. Particulars: rat, 4:1 combination, SC bolus 60/14 mg/kg then SC infusion 300/71 mg/kg. Here is the method: After 1.5 hours, the combination was dosed again via continuous infusion at a dose of 300/71 mg/kg over next 14.5 hours. Blood samples were collected at 0, 0.25, 1, 6, 16, and 24 hours post dose. […] FIG. 7 provides a time-concentration profile for L-dopa and L-dopa 4′-monophosphate blood levels after administration of the combination of 4′-monophosphate prodrugs at a 4:1 ratio. […] Steady state concentration of ˜1 μg/mL was maintained over the infusion period for carbidopa. […] FIG. 9 provides a time-concentration profile for carbidopa and carbidopa 4′-monophosphate blood levels after administration of the combination of 4′-monophosphate prodrugs at a 4:1 ratio.

Data set [12] can be described thus: In vitro bioconversion study, kidney S9 fraction (human). It is filed as in vitro ADME. The following applies: human kidney S9 fraction 1 mg/mL.
Protocol: as §2
Data set [13] can be described thus: In vitro bioconversion study, liver S9 fraction (rat). The following applies: rat liver S9 fraction 1 mg/mL. It is filed as in vitro ADME.
Protocol: as §2
A short description of data set [14]: In vitro bioconversion study, kidney S9 fraction (rat). Particulars: rat kidney S9 fraction 1 mg/mL. It is filed as in vitro ADME.
Protocol: as §2
A short description of data set [15]: In vitro bioconversion study, liver S9 fraction (mini-pig). The following applies: mini-pig liver S9 fraction 1 mg/mL. The format is in vitro ADME.
Protocol: as §2
The nature of data set [16]: In vitro bioconversion study, intestinal S9 fractions (rat). It is filed as in vitro ADME. The following applies: for L-Dopa or Carbidopa Formation: rat intestinal S9 fraction; for half-life at 2.5 ug/mL: rat intestinal S9 fraction 1 mg/mL.
Protocol: as §2
The conditions of data set [17]: mini-pig, 15:1 combination 48/3.2 mg/kg.
Protocol: In this study, the pig received a 16-hour subcutaneous infusion of a combination of the L-dopa 4′-monophosphate and the carbidopa 4′-monophosphate together in an aqueous solution at a dose ratio of 15:1 without an initial bolus dose. The doses were 48/3.2 mg/kg for L-dopa 4′-monophosphate and the carbidopa 4′-monophosphate, respectively.
Data set [18] in a line: In vitro bioconversion study, intestinal S9 fractions (human). The format is in vitro ADME. The following applies: for L-Dopa or Carbidopa Formation: human intestinal S9 fraction; for half-life at 2.5 ug/mL: human intestinal S9 fraction 1 mg/mL.
Protocol: as §2
Data set [19] can be described thus: In vitro bioconversion study, liver S9 fraction (human). The format is in vitro ADME. Particulars: human liver S9 fraction 1 mg/mL.
Protocol: as §2
A short description of data set [20]: Carbidopa diphosphate pharmacokinetics study in mini-pigs. The format is in vivo. Particulars: for Estimated Conversion % (Based on Carbidopa AUC): mini-pig, SC, dose 8.5 mg/kg. Here is the method:
The in vivo conversion of the carbidopa diphosphate to carbidopa was evaluated in a mini-pig pharmacokinetics study in which the prodrug was administered in aqueous solution subcutaneously to a group of three mini-pigs. For comparison, a pharmacokinetics study with carbidopa also was conducted to help assess the in vivo conversion of the carbidopa prodrugs. The estimated in vivo conversion of the carbidopa diphosphate to carbidopa was approximately 100%, based on the carbidopa exposures.

The nature of data set [21]: Pharmacokinetic study in rats, individual prodrug IV or SC. The format is in vivo, Sprague-Dawley rats. Particulars: male, Sprague-Dawley, plasma, rat, dose 1.25 mg/kg, L-dopa and carbidopa in aqueous solution, read-out: Carbidopa AUCO-8 h. Here is the method: For comparison, a rat pharmacokinetics study with L-dopa and carbidopa was conducted to help assess the in vivo conversion of the prodrugs. The study design and measured exposures of L-dopa and carbidopa are summarized in Tables 16-A and 16-B, respectively. In brief, groups of three male Sprague-Dawley rats were given (1) L-dopa and carbidopa in aqueous solution, or (2) the individual prodrug in aqueuous solution intravenously or subcutaneously. Blood samples were collected at multiple time points over 24 hours into a collection tube containing NaAsO4, EDTA, and ascorbic acid. […] The supernatants were subjected to LC-MS analysis for quantitation of prodrug, L-dopa or carbidopa.

The nature of data set [22]: 1-day stability study, diphosphate combination solution. It is filed as physicochemical. Particulars: combined solution L-dopa 3′,4′-diphosphate 35 mg/mL + carbidopa 3′,4′-diphosphate 8.7 mg/mL, pH 6.2, room temperature, nitrogen purged. Here is the method:
In addition, a solution combining the diphosphates of each compound (L-dopa 3′, 4′-diphosphate at 35 mg/mL and carbidopa 3′, 4′-diphosphate at 8.7 mg/mL) was monitored over one day at room temperature. This sample was purged with nitrogen to remove oxygen.

Where [23] appears, read: human skin homogenate 3 mg/mL, 37° C.
The mark [24] stands for this setting: mini-pig skin homogenate 3 mg/mL, 37° C.
Setting [25] is: rat skin homogenate 3 mg/mL, 37° C.
Where [26] appears, read: listed as 3′,4′-diphosphate prodrug of carbidopa.
The mark [27] stands for this setting: listed as diphosphate prodrug of carbidopa.

One may read the solubility as the dissolved amount per volume that the medium holds. Low values mean little dissolved substance, high ones much dissolved substance. What is called half-life is the time needed for the level to fall by half in the phase considered. In turn, `C[C@@](Cc1ccc(O)c(OP(=O)(O)O)c1)(NN)C(=O)O` [Carbidopa 3′-phosphate, Carbidopa 3′-monophosphate] had a solubility in data set [1] (pH 7.1, amorphous) of more than 96 mg/mL. For the same molecule, the “L-Dopa or Carbidopa Formation” value in [2], in [3], in data set [4], in [5], in data set [6] and in data set [7] was “Yes” throughout. Besides, the half-life at 2.5 ug/mL in data set [2] is 0.967 h; in data set [3] (setting [23]) it was 10 h; in [4], 0.342 h; in data set [5] (setting [24]) it was 6.88 h; in [6] it was 8.9 min; in data set [7] (setting [25]) it was 12.1 h. In data set [8] (pH 6.5), the “% Remaining After One Day” value was more than 94%.

`C[C@@](Cc1ccc(OP(=O)(O)O)c(O)c1)(NN)C(=O)O` [Carbidopa 4′-phosphate, Carbidopa 4′-monophosphate]: the “% Remaining After 7 Days” value in data set [9] (Nitrogen Purged) is more than 99%; in data set [9] (Non-Purged) it was more than 97%. In addition, the “solubility compared to L-dopa and carbidopa” value in data set [1] (FIG. 1, pH of 7.4) was “increased solubility”. For the same molecule, the solubility in data set [1] (pH 7.4, L-dopa 4′-phosphate crystalline, carbidopa 4′-phosphate amorphous) is more than 200 mg/mL. For the same molecule, the “L-Dopa or Carbidopa Formation” value in data set [2], in [3], in data set [4], in data set [5], in data set [6] and in [16] was “Yes” throughout. Besides, the “L-Dopa or Carbidopa Formation” value in data set [7] and in [18] was “Yes” throughout. For the same molecule, the half-life at 2.5 ug/mL in [2] came to 1.08 h; in data set [3] (setting [23]), 2.3 h; in [4], 0.248 h; in data set [5] (setting [24]), 1.9 h; in data set [6], 8.8 min; in data set [16] it was 1.23 h. The half-life at 2.5 ug/mL in [7] (setting [25]) came out at 4.52 h; in data set [18], 0.402 h. The “stability and L-dopa or carbidopa formation” value in [10], in data set [12], in data set [13], in data set [14], in data set [15] and in data set [19] was “stable without formation of L-dopa or carbidopa observed” throughout. In data set [11], the “Exposure of the remaining carbidopa 4′-monophosphate, % of carbidopa” value is recorded as approximately 8%. Besides, the “% Remaining After One Day” value in data set [8] (pH 6.8) is listed as more than 98%. In [17], the “Exposure of the remaining carbidopa 4′-monophosphate, % of the carbidopa exposure” value is approximately 22%.

On to `C[C@@](Cc1ccc(O)c(O)c1)(NN)C(=O)O` [Carbidopa, (2S)-3-(3,4-dihydroxyphenyl)-2-hydrazino-2-methylpropanoic acid], for which, in data set [1] (pH 4-7, crystalline (carbidopa: crystalline monohydrate)), the solubility was less than 4 mg/mL. Moreover, the AUC in data set [20] (minipig, in vivo, sc, 2 mg/kg) came out at 1.61 µg·h/mL; in data set [21] (IV), 0.86 µg·h/mL; in data set [21] (SC), 0.685 µg·h/mL.

Regarding `C[C@@](Cc1ccc(OP(=O)(O)O)c(OP(=O)(O)O)c1)(NN)C(=O)O` [Carbidopa 3′,4′-diphosphate], in data set [1] (pH 5.5, amorphous), the solubility is more than 247 mg/mL. For the same molecule, the “L-Dopa or Carbidopa Formation” value in data set [2] was “No”; in data set [3], “No”; in data set [4], “Yes”; in data set [5], “No”; in data set [6], “No”; in data set [16] it was “Yes”. Besides, the results for the “L-Dopa or Carbidopa Formation” value in data set [7] and in [18] were “No” and “Yes”, respectively. Besides, the T1/2 entry is listed as “stable” in [2] (setting [26]); “not dephosphorylated” in data set [2] (setting [27]); “stable” in data set [3] (setting [23]); “stable” in data set [5] (setting [24]); “stable” in [6] (setting [26]); “not dephosphorylated” in data set [6] (setting [27]). In data set [7] (setting [25]), the T1/2 entry was “stable”. Besides, the “stability and L-dopa or carbidopa formation” value in [10], in data set [12], in [13], in data set [14], in data set [15] and in data set [19] was “stable without formation of L-dopa or carbidopa observed” each time. Also, the results for the half-life at 2.5 ug/mL in data set [4], in data set [16] and in [18] were 0.883 h, 1.32 h and 0.525 h, respectively. The “Estimated Conversion % (Based on Carbidopa AUC)” value is reported as 100% in [20] (setting [26]) and “approximately 100%” in data set [20] (listed as carbidopa diphosphate). The “% Remaining After One Day” value in data set [22] is on record as more than 99%; in [8] (pH 6.8), more than 97%.

The values are drawn from patent US10730895B2, “Carbidopa prodrug” (AbbVie Inc., priority 2014, dated 2020).
